Laboratory results published in patent publication US5985926A, “Method for inhibiting intracellular viral replication” (Cell Therapeutics, Inc., priority 1997, dated 1999).
Like-named read-outs stand apart in the source and are kept apart here.

What was measured:
[1] = test system: HIV-LTR promoter (tat transactivation) in 293-EBNA cells; assay: AP reporter gene expression from HIV-LTR promoter with tat expression vector, 293-EBNA cells; assay type: cell-based, HIV; human cells; conditions: 293-EBNA cells, HIV promoter, in words
Procedure, shortened: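 293-EBNA cells were transiently co-transfected with an HIV-LTR-driven secreted placental alkaline phosphatase reporter and a tat(1–72) expression plasmid. At 24 h, the medium was switched to serum-free AIM V before compounds were added at various concentrations. Secreted AP activity was read colorimetrically at 405 nm 19–24 h later.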

[2] = test system: HIV-LTR promoter in 293tat cells; assay: HIV-LTR directed AP reporter expression in 293tat cells activated by tat and TNF-α; assay type: cell-based; conditions: Homo sapiens
Experimental: 293tat cells, a cell line stably transfected with the expression plasmids pHIV.AP and pHIV.tat, were plated onto 96-well microtiter plates at 2000 cells per well. The media were changed the next day and CT2576 was added at the indicated concentrations to the fresh media with or without TNF-α (20 ng/ml). 2 μl of medium from each well was used for AP assay 24 hr later. After culture media were withdrawn for AP assay, cytotoxicity was measured for the same cell cultures using an indicator dye, Alamar Blue™, that would change color in response to the reduction potential of cell medium due to cell growth. The left y-axis refers to the absorbance value of the reduced form of Alamar Blue™ at 570 nm with the background absorbance at 600 nm from the oxidized form of Alamar Blue™ subtracted. Each data point represents the mean of triplicate samples with error bar indicating the standard deviation of the mean.
Stable cell lines 293tar, 293tat and 293tat2 were generated by transfections using conditions described in (Tate et al., FASEB J. 4:227-231, 1990) with the plasmid pHIV.AP alone or along with either pHIV.tat or pSV2tat72, respectively. The assay of HIV-1 p24 antigen expression in the chronically HIV-1-infected promonocytic line U1 after 4 days and in acutely infected peripheral blood lymphocytes (PBL) after 7 days were described (Peterson et al., J. Clin. Invest. 89:574-580, 1992, and Brighty et al., Proc Natl. Acad. Sci. USA 88:7802-7805, 1991).
This example illustrates that CT2576 inhibited TNF-α and tat-activated HIV-LTR promoter directed expression in 293tat cells. Cell activation signals generated by interaction of ligands with receptors are eventually converted to changes in the pattern of gene expression. A reporter gene expression system under the control of the HIV-LTR promoter was set up to investigate compounds that inhibit signaling pathway for HIV activation in infected cells. […]

| SMILES | inhibition of AP expression (HIV-LTR promoter) [1] | inhibition at 12 µM ([2]; 24 h, 293tat cells, CT2576 12 μM, after TNF-α or IL-1β induction, read-out: decrease in AP activity after TNF-α or IL-1β induction) [%] | IC50 ([2]; read-out: IC50, TNF-α induced HIV-LTR directed AP expression, 293tat cells, with TNF-α (20 ng/ml)) [µM] | IC50 ([2]; read-out: IC50, tat-dependent HIV-LTR directed AP expression, 293tat cells, tat activation, without TNF-α) [µM] |
| --- | --- | --- | --- | --- |
| CCCCCCCCNCC(O)CCCCCCCCCN1C(=O)CCN(C)C1=O (stereo not shown) [CT1829, 3-(11-octylamino-10-hydroxyundecyl)-1-methyldihydrouracil] | inhibit HIV promoter driven expression | – | – | – |
| CCCCCCCCNCC(O)CCCCCCCCCn1c(=O)c2c(ncn2C)n(C)c1=O (stereo not shown) [CT2576, 1-(11-octylamino-10-hydroxyundecyl)-3,7-dimethylxanthine] | – | 83 to 90 | ~10 | ~10 |
